Here are results for one substance from patent US10336792B2, “Antimicrobial peptide dendrimers” (priority 2014, dated 2019).

Assay [1] in a line: 5(6)-Carboxyfluorescein leakage from lipid vesicles. To be noted: 10 mM TRIS, 107 mM NaCl, pH 7.4; peptide added at 50 s. As to the method:
Preparation A thin lipid film was prepared by evaporating a solution of 25 mg Egg PC or Egg PG in 1 mL MeOH/CHCl3 1/1 on a rotary evaporator (rt) and then in vacuo overnight. The resulting film was hydrated with 1 mL buffer (50 mM CF, 10 mM TIRS, 10 mM NaCl, pH 7.4) for 30 min, subjected to freeze-thaw cycles (7×) and extrusion (15×) through a polycarbonate membrane (pore size 100 nm). Extravesicular components were removed by gel filtration (Sephadex G-50) with 10 mM TRIS, 107 mM NaCl, pH 7.4. Final conditions: ˜2.5 mM Egg PC or Egg PG; inside: 50 mM CF, 10 mM TIRS, 10 mM NaCl, pH 7.4; outside: 10 mM TRIS, 107 mM NaCl, pH 7.4.
Experiment Egg PC or Egg PG stock solutions (37.5 μL) were diluted with a buffer (10 mM TRIS, 107 mM NaCl, pH 7.4) and placed in a thermostated fluorescence cuvette (25° C.) and gently stirred (total volume in the cuvette ˜3000 μL; final lipid concentration ˜31.25 μM). CF efflux was monitored at λem 517 nm (λex 492 nm) as a function of time after addition of 20 μL of peptide dendrimer in buffer (10 mM TRIS, 107 mM NaCl, pH 7.4) with final concentrations of 1, 5, 7.5, 10, 15, 20, 25, 30 μg/mL at t=50 s and 1.2% trition X-100 (30 μL, 0.012% final concentration) at t=300 s. Fluorescence intensities were normalized to fractional emission intensity I(t) using I(t)=(It−I0)/(I∞−I0) where I0 It at peptide dendrimer addition, I∞=It at saturation of lysis.

In the next assay the test system is P. aeruginosa PA01 (WT). It counts as cell-based, Pseudomonas aeruginosa.
A further assay has as its system PAO1. It counts as cell-based, Pseudomonas aeruginosa. To be noted: PAO1, MH medium + 30% human serum.
Assay [2] relates to P. aeruginosa PT1482 (A-), PT1485 (A-B-), PT1149 (A-B-C-algC), PT331 (Z61) (LPS mutants). The class given is cell-based, Pseudomonas aeruginosa. To be noted: MH medium, 12-18 h.
The subject of assay [3] is Pseudomonas aeruginosa (strain PA01). The assay can be described thus: microbe, parasite or virus in culture. To be noted: LB medium, serial 2/3 dilution, 37 °C, 18-24 h. The class given is cell-based. The procedure, abridged:
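P. aeruginosa PAO1 grown overnight in LB, diluted to OD600 0.001 and mixed with ⅔-step peptide dilutions, then incubated at 37 °C for 18–24 h. After MTT staining, the lowest concentration with no visible growth was read by eye as the MIC.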

Take Polymyxin B [reference compound]: the “CF leakage from phosphatidylcholine LUVs” value in assay [1] was “behave in the same way”. Also, in the assay with P. aeruginosa PA01 (WT) (MH medium, 12-18 h, two independent experiments in triplicate (Table 25)), the “MIC PAO1” value came out at 1 µg/mL. Besides, in the assay with P. aeruginosa PA01 (WT) (PAO1, MH medium (Table 24)), the “MIC (MH)” value was found to be 2 µg/mL. Also, in the assay with PAO1, the “MIC (MH + 30% human serum)” value came out at 4 µg/mL. Besides, in assay [2], the “MIC PT1482 (A-)” value was 1 µg/mL and the “MIC PT1485 (AB-)” value is <1 µg/mL. Besides, the “MIC P. aeruginosa PAO1” value in assay [3] is 2 µg/mL.
